Results on one compound are retold here after US20040053345A1, “Marker for probing the therapeutic efficacy of drugs” (priority 2002, published 2004).

Entries after “also recorded” stand apart in the source; their conditions may differ.

Assay [1] concerns estrogen receptor (ER) transcription activity. In words: Reporter gene assay with ERE-Luc in menin-transfected cells in the presence of tamoxifen. Particulars: MCF-7 cells co-transfected with menin expression vector and ERE-Luc; 1 μM tamoxifen; 24 hours. Format: cell-based, human. (In general: A reporter such as luciferase makes a cellular process visible.)
Procedure: The cells were cultured in DMEM (ICN) medium to which 10% fetal calf serum (ICN) was supplemented.
Full-length menin cDNA was amplified by RT-PCR, and inserted into an expression vector, pcDNA3 (Invitrogen). The menin cDNA was identified by sequencing. The mutation (569delC) was introduced with a site-directed mutagenesis kit (Promega) to produce a variant menin.
The menin expression vector and the reporter gene (ERE-Luc) were co-transfected into MCF-7 cells according to the liposome method. Similarly, the menin expression vector, CMV-ERA and the reporter gene (ERE-Luc) were co-transfected. into COS-7 cells according to the liposome method. After culturing for 24 hours, the proteins were extracted from cells and assayed for their luciferase activity. The extracted proteins were measured for their protein concentration and β-galactosidase activity wherein β-galactosidase was co-transfected and the introduction efficiency was calibrated. Similar experiments were carried out with addition of 1 μM tamoxifen to the same system.
For assay [2], the system named is breast cancer. In words: Menin expression in breast cancer tissues (immunohistological staining) versus recurrence under tamoxifen. Format: in vivo, human. The protocol:
Thin slices (4 μm) were prepared from breast cancer tissues embedded with paraffin. After removing paraffin, the microwave treatment was carried out (5 min×3) in citrate buffer. After cooling at room temperature, the endogenous peroxidase activity was inhibited using an aqueous 0.3% hydrogen peroxide solution. Next, blocking was performed with 6 drops of 5% bovine albumin (Sigma) for one hour, and then the anti-menin antibody (Santa Cruz) (first antibody capable of immunohistological staining) was reacted overnight (8 hours). After washing, the second antibody and 6 drops of Envision+ (Dako) wherein HRP was conjugated with polymers were reacted for one hour.
After 100 mg of a coloring agent, DAB (Dojindo), was thoroughly mixed in 150 ml of PBS, the slice was immersed in a solution containing 75 μl of 30% hydrogen peroxide (0.5 μl/ml) for 1 min, and immediately immersed into and washed with tap water. After the dehydration treatment, the slice was enclosed with a cover glass, and observed by a microscopy. The specimen where menin-positive cells with brown-colored nuclei were 50% or more of total cells was determined to be menin-positive.

Assay [3] has as its system breast cancer. The conditions noted are these: ER-positive patients, tamoxifen administered for 5 years; cited from earlier work.

Regarding `CC/C(=C(\c1ccccc1)c1ccc(OCCN(C)C)cc1)c1ccccc1` [tamoxifen], the “inhibition of luciferase activity (ER transcription activity)” value in assay [1] is listed as “not inhibited; also recorded: no suppressive effect”. Besides, the cancer recurrence in assay [2] (5 menin-positive cases, tamoxifen administered in 3 cases) was 4 cases; in assay [2] (menin-negative patient cases (3 of 10) administered tamoxifen) it was “no recurrence”. Also, in assay [3], the “recurrence rate relative to that in non-administered patients” value is 50%.
